Tests used:
[1] = test system: adult male Lewis rats fasted for 24 h; experiment: glyburide induced hypoglycemia in fasted rats, plasma glucose; format: in vivo, rat; conditions: for glucose −30 min / glucose 1 h / glucose 3 h / glucose 6 h / glucose −24 h: fasted animals; for glucose −30 min: 30 min before application (baseline); for glucose 1 h: 1 h after application; for glucose 3 h: 3 h after application; for glucose 6 h: 6 h after application; for glucose −24 h: 24 h before application (baseline)
Method: Food restriction for 24 h reduced plasma glucose concentration in all treatment groups from about 8 mmol/l to approximately 6 mmol/l. 30 min before the application of the compound (FIG. 1, Table 1).

fed rats = experiment: glyburide effect on plasma glucose in fed rats; format: in vivo, rat; conditions: for glucose 1 h / glucose 3 h / glucose 6 h / glucose −24 h / glucose −30 min: fed animals; for glucose 1 h: 1 h after application; for glucose 3 h: 3 h after application; for glucose 6 h: 6 h after application; for glucose −24 h: 24 h before application (baseline); for glucose −30 min: 30 min before application (baseline)
Method: 30 min before the application of the compound (FIG. 1, Table 1).

patients = patients with hypoglycemia receiving octreotide; cited from earlier work
[2] = Glyburide 30 mg/kg p.o. + 10 μg/kg s.c.
[3] = Glyburide 30 mg/kg p.o. + 30 μg/kg s.c.

Row | Compound | glucose −30 min [1, 2] [mmol/L] | glucose 1 h [1, 2] [mmol/L] | glucose 3 h [1, 2] [mmol/L] | glucose 6 h [1, 2] [mmol/L] | glucose −24 h [1, 2] [mmol/L] | glucose −30 min [1, 3] [mmol/L] | glucose 1 h [1, 3] [mmol/L] | glucose 3 h [1, 3] [mmol/L] | glucose 6 h [1, 3] [mmol/L] | glucose −24 h [1, 3] [mmol/L] | glucose 1 h (fed rats; [2]) [mmol/L] | glucose 3 h (fed rats; [2]) [mmol/L] | glucose 6 h (fed rats; [2]) [mmol/L] | glucose −24 h (fed rats; [2]) [mmol/L] | glucose 1 h (fed rats; [3]) [mmol/L] | glucose 3 h (fed rats; [3]) [mmol/L] | glucose 6 h (fed rats; [3]) [mmol/L] | glucose −24 h (fed rats; [3]) | further results
1 | C[C@@H](O)[C@@H]1NC(=O)[C@H](CCCCN)NC(=O)[C@@H](Cc2c[nH]c3ccccc23)NC(=O)[C@H](Cc2ccccc2)NC(=O)[C@@H](NC(=O)[C@H](N)Cc2ccccc2)CSSC[C@@H](C(=O)N[C@H](CO)[C@@H](C)O)NC1=O [octreotide] | 5.75 ± 0.21 | 4.27 ± 0.07 | 4.28 ± 0.14 | 4.28 ± 0.23 | 8.53 ± 0.27 | 6.43 ± 0.49 | 4.22 ± 0.14 | 5.83 ± 0.28 | 4.83 ± 0.24 | 8.63 ± 0.19 | 7.27 ± 0.15 | 5.80 ± 0.24 | 6.00 ± 0.44 | 8.17 ± 0.38 | 7.48 ± 0.25 | 5.63 ± 0.24 | 6.10 ± 0.43 | 8.07 + 0.43 mmol/L | prevention of the glyburide induced hypoglycemia ([1]; fasted rats, Glyburide 30 mg/kg p.o. + 10 or 30 μg/kg s.c., after 1 h): not effective; effect on glucose levels in glyburide treated rats ([1]; fasted rats, highest dose (30 μg/kg s.c.), after 3 and 6 h): only a small tendency to increase glucose levels; serum glucose level versus controls (patients): higher than that in controls; time within which the effect on serum glucose waned (patients): ≤ 8 h
2 | COc1ccc(Cl)cc1C(=O)NCCc1ccc(S(=O)(=O)NC(=O)NC2CCCCC2)cc1 [Glyburide] | – | – | – | – | – | – | – | – | – | – | – | – | – | – | – | – | – | – | glucose −30 min ([1]; Glyburide 30 mg/kg p.o. alone): 6.07 ± 0.39 mmol/L; glucose 1 h ([1]; Glyburide 30 mg/kg p.o. alone): 5.48 ± 0.15 mmol/L; glucose 3 h ([1]; Glyburide 30 mg/kg p.o. alone): 4.17 ± 0.16 mmol/L; glucose 6 h ([1]; Glyburide 30 mg/kg p.o. alone): 3.53 ± 0.13 mmol/L; glucose −24 h ([1]; Glyburide 30 mg/kg p.o. alone): 7.87 ± 0.34 mmol/L; minimum plasma glucose level ([1]; fasted rats, Glyburide 30 mg/kg p.o. alone, 6 h after the application): 3.5 mmol/L; glucose −30 min (fed rats; Glyburide 30 mg/kg p.o. alone): 8.72 ± 0.14 mmol/L; glucose 1 h (fed rats; Glyburide 30 mg/kg p.o. alone): 7.42 ± 0.18 mmol/L; glucose 3 h (fed rats; Glyburide 30 mg/kg p.o. alone): 5.33 ± 0.16 mmol/L; glucose 6 h (fed rats; Glyburide 30 mg/kg p.o. alone): 6.27 ± 0.16 mmol/L; glucose −24 h (fed rats; Glyburide 30 mg/kg p.o. alone): 8.65 ± 0.11 mmol/L; hypoglycemic effect (fed rats; fed rats, glyburide alone): not very pronounced
3 | cyclo[{(4-(NH2—C2H4—NH—CO—O—)Pro}-Phg-DTrp-Lys-Tyr(4-Bzl)-Phe] [pasireotide] | 5.88 ± 0.16 | 7.00 ± 0.42 | 6.22 ± 0.42 | 6.48 ± 0.52 | 8.07 ± 0.45 | 6.10 ± 0.23 | 6.98 ± 0.59 | 7.55 ± 0.47 | 7.58 ± 0.47 | 7.93 ± 0.52 | 13.48 ± 0.65 | 12.42 ± 0.39 | 6.85 ± 0.23 | 8.65 ± 0.18 | 13.47 ± 0.91 | 13.13 ± 0.69 | 9.12 ± 0.47 | 8.85 ± 0.25 mmol/L | effect on plasma glucose in glyburide treated rats ([1]; fasted rats, Glyburide 30 mg/kg p.o. + 10 or 30 μg/kg s.c., 1, 3 and 6 h after the application): plasma glucose increased to levels of untreated fasted rats or above; glucose −30 min (fed rats; [2]): 8.53 ± 0.34 mmol/L; glucose −30 min (fed rats; [3]): 8.10 ± 0.29 mmol/L; effect on plasma glucose (fed rats; fed rats pretreated with glyburide): significant but transit effect

From US9314508B2, “Use of somatostatin analogs in control of hypoglycemia” (priority 2008, dated 2016)
